Drawing on patent publication US9670206B2, “Pyrido[4,3-B]pyrazine-2-carboxamides as neurogenic agents for the treatment of neurodegenerative disorders” (Hoffmann-La Roche Inc., priority 2013, dated 2017), this text covers EC (150% of control) for 37 compounds.

For the assay, the system named is human embryonic stem cell derived neural stem cells (NSCs). Put plainly: Neural stem cell proliferation assay (neurogenesis assay, ATP levels by CellTiterGlo). The assay is classed as cell-based. The note with it: 96 h, compound concentration at which 150% activity of control (100%) is reached, NSC proliferation, ATP readout after 4 days incubation. As to the method:
Neural Stem Cell Proliferation Assay
Neurogenic properties of small molecules are determined based on the proliferation of human embryonic stem cell derived neural stem cells (NSCs) which were derived via a dual smad inhibition as previously described (Chambers, S. M., et al., Highly efficient neural conversion of human ES and iPS cells by dual inhibition of SMAD signaling, Nature biotechnology, 2009. 27(3): p. 275-80.) Compounds respond is measured by the increase in cells based on ATP levels (Promega:CellTiterGlo®) after an incubation period of 4 days. NSCs are thawed and expanded over 3 passages. On the 14th day, NSCs are seeded in Polyornithin/Laminin coated 384 well plates at a cell density of 21,000 cells/cm^2 in a media volume of 38 μl. 4 hours after cell seeding, compound solutions are added at a volume of 2 μl. Stock solutions of the compounds (water, 5% DMSO) are diluted to obtain a dose response (11 points, dilution factor is 2), ranging from 8 μM to 8 nM. Controls are run to consistently determine the neurogenic properties of the cells: Negative (neutral) control is cell culture Media (final DMSO concentration: 0.25%). Positive controls are: • 1. cell culture Media+100 ng/ml FGF2 (final DMSO concentration: 0.1%) • 2. cell culture Media+20 ng/ml EGF (final DMSO concentration: 0.1%) • 3. cell culture Media+100 ng/ml Wnt3a (final DMSO concentration: 0.1%) After 4 days incubation at 37° C., 5% CO2, the amount of ATP per well is quantified. The ATP concentration is proportional to the cell number. ATP is quantified by using the Promega CellTiterGlo® kit. The CellTiterGlo® reagents contain a cell lysis buffer, a thermo stable luciferase (UltraGlo™ recombinant luciferase), magnesium and luciferin. Luciferin reacts with ATP producing oxyluciferin, AMP and light. The luminescence signal is proportional to the ATP content. The value of negative (neutral) control is determined for each assay plate by taking the average of 16 negative control wells. The neurogenic compound response is calculated for each compound as (compound/Negative Control)*100. The values of EC150 from the dose response curve are determined for each test compound. The EC150 is the compound concentration at which 150% activity of control (100%) is reached.
(ATP-based viability assays read luminescence as a measure of living cells.)

For `NC(=O)c1cnc2cncc(-c3ccc(Cl)cc3)c2n1` [Example 1, 8-(4-Chlorophenyl)pyrido[4,3-b]pyrazine-2-carboxamide], the EC (150% of control) was 0.21 µM.

Regarding `NC(=O)c1cnc2cncc(-c3ccc(C(F)(F)F)cc3)c2n1` [Example 2, 8-(4-(Trifluoromethyl)phenyl)pyrido[4,3-b]pyrazine-2-carboxamide], the EC (150% of control) was determined as 0.3 µM. With `N#CC1(NC(=O)c2cnc3cncc(Br)c3n2)CC1` [Example 3, 8-Bromo-N-(1-cyanocyclopropyl)pyrido[4,3-b]pyrazine-2-carboxamide] the figure was 2.32 µM; with `O=C(c1cnc2cncc(Br)c2n1)N1CCOCC1` [Example 4, (8-Bromopyrido[4,3-b]pyrazin-2-yl)(morpholino)methanone], 0.07 µM.

Compound `CC(NC(=O)c1cnc2cncc(-c3ccc(Cl)cc3)c2n1)C(C)(C)O` (stereo not shown) [Example 5, 8-(4-Chlorophenyl)-N-(3-hydroxy-3-methylbutan-2-yl)pyrido[4,3-b]pyrazine-2-carboxamide] registered an EC (150% of control) of 0.89 µM. As for `CC(NC(=O)c1cnc2cncc(-c3ccc(C(F)(F)F)cc3)c2n1)C(C)(C)O` (stereo not shown) [Example 6, N-(3-Hydroxy-3-methylbutan-2-yl)-8-(4-(trifluoromethyl)phenyl)pyrido[4,3-b]pyrazine-2-carboxamide], the figure is 0.38 µM.

`N#CC1(NC(=O)c2cnc3cncc(-c4ccc(Cl)cc4)c3n2)CC1` [Example 7, 8-(4-Chlorophenyl)-N-(1-cyanocyclopropyl)pyrido[4,3-b]pyrazine-2-carboxamide] had an EC (150% of control) of 0.39 µM.

As for `N#CC1(NC(=O)c2cnc3cncc(-c4ccc(C(F)(F)F)cc4)c3n2)CC1` [Example 8, N-(1-Cyanocyclopropyl)-8-(4-(trifluoromethyl)phenyl)pyrido[4,3-b]pyrazine-2-carboxamide], the EC (150% of control) was 0.39 µM. As for `O=C(c1cnc2cncc(-c3ccc(Cl)cc3)c2n1)N1CCOCC1` [Example 9, (8-(4-Chlorophenyl)pyrido[4,3-b]pyrazin-2-yl)(morpholino)methanone], the figure is 0.65 µM. As for `O=C(c1cnc2cncc(-c3ccc(C(F)(F)F)cc3)c2n1)N1CCOCC1` [Example 10, Morpholino(8-(4-(trifluoromethyl)phenyl)pyrido[4,3-b]pyrazin-2-yl)methanone], the figure is 2.96 µM; as for `O=C(NCc1ccccc1)c1cnc2cncc(-c3ccc(C(F)(F)F)cc3)c2n1` [Example 11, N-Benzyl-8-(4-(trifluoromethyl)phenyl)pyrido[4,3-b]pyrazine-2-carboxamide], 0.41 µM; as for `O=C(NCc1ccccc1)c1cnc2cncc(-c3ccc(Cl)cc3)c2n1` [Example 12, N-Benzyl-8-(4-chlorophenyl)pyrido[4,3-b]pyrazine-2-carboxamide], 0.26 µM.

In turn, `NC(=O)c1cnc2cncc(-c3ccc(Cl)cc3Cl)c2n1` [Example 13, 8-(2,4-Dichlorophenyl)pyrido[4,3-b]pyrazine-2-carboxamide] gave an EC (150% of control) of 0.28 µM. As for `NC(=O)c1cnc2cncc(-c3ccc(F)cc3)c2n1` [Example 14, 8-(4-Fluorophenyl)pyrido[4,3-b]pyrazine-2-carboxamide], the figure is 0.1 µM. With `NC(=O)c1cnc2cncc(-c3cc(F)c(F)c(F)c3)c2n1` [Example 15, 8-(3,4,5-Trifluorophenyl)pyrido[4,3-b]pyrazine-2-carboxamide] the figure was 0.55 µM; with `NC(=O)c1cnc2cncc(-c3ccccc3F)c2n1` [Example 16, 8-(2-Fluorophenyl)pyrido[4,3-b]pyrazine-2-carboxamide], 0.06 µM.

The compound `NC(=O)c1cnc2cncc(-c3ccc(C(F)(F)F)cc3F)c2n1` [Example 17, 8-(2-Fluoro-4-(trifluoromethyl)phenyl)pyrido[4,3-b]pyrazine-2-carboxamide] registered an EC (150% of control) of 0.08 µM.

`NC(=O)c1cnc2cncc(-c3ccc(Cl)nc3)c2n1` [Example 18, 8-(6-Chloropyridin-3-yl)pyrido[4,3-b]pyrazine-2-carboxamide]: the EC (150% of control) amounted to 0.21 µM. Compound `NC(=O)c1cnc2cncc(-c3ccc(OC(F)(F)F)cc3)c2n1` [Example 19, 8-(4-(Trifluoromethoxy)phenyl)pyrido[4,3-b]pyrazine-2-carboxamide] gave an EC (150% of control) of 0.09 µM.

`NC(=O)c1cnc2cncc(-c3cc(C(F)(F)F)ccc3F)c2n1` [Example 20, 8-(2-Fluoro-5-(trifluoromethyl)phenyl)pyrido[4,3-b]pyrazine-2-carboxamide] came in with an EC (150% of control) of 0.22 µM. With `NC(=O)c1cnc2cncc(-c3cccc(OC(F)(F)F)c3)c2n1` [Example 21, 8-(3-(Trifluoromethoxy)phenyl)pyrido[4,3-b]pyrazine-2-carboxamide] the figure was 0.21 µM; with `NC(=O)c1cnc2cncc(-c3ccc(Cl)cc3F)c2n1` [Example 22, 8-(4-Chloro-2-fluorophenyl)pyrido[4,3-b]pyrazine-2-carboxamide], 0.07 µM. With `NC(=O)c1cnc2cncc(-c3ccc(Cl)c(F)c3)c2n1` [Example 23, 8-(4-Chloro-3-fluorophenyl)pyrido[4,3-b]pyrazine-2-carboxamide], the EC (150% of control) was 0.1 µM. With `NC(=O)c1cnc2cncc(-c3ccc(C(F)(F)F)c(F)c3)c2n1` [Example 24, 8-(3-Fluoro-4-(trifluoromethyl)phenyl)pyrido[4,3-b]pyrazine-2-carboxamide] the figure was 0.18 µM; with `NC(=O)c1cnc2cncc(C3=CCOCC3)c2n1` [Example 25, 8-(3,6-Dihydro-2H-pyran-4-yl)pyrido[4,3-b]pyrazine-2-carboxamide], 0.66 µM.

For `NC(=O)c1cnc2cncc(-c3cccc(C(F)(F)F)c3)c2n1` [Example 26, 8-(3-(Trifluoromethyl)phenyl)pyrido[4,3-b]pyrazine-2-carboxamide], the EC (150% of control) came to 0.43 µM. As for `NC(=O)c1cnc2cncc(-c3ccc(F)c(F)c3)c2n1` [Example 27, 8-(3,4-Difluorophenyl)pyrido[4,3-b]pyrazine-2-carboxamide], the figure is 0.12 µM; as for `O=C(c1cnc2cncc(-c3ccc(C(F)(F)F)cc3)c2n1)N1CCC(O)C1` (stereo not shown) [Example 28, (3-Hydroxypyrrolidin-1-yl)(8-(4-(trifluoromethyl)phenyl)pyrido[4,3-b]pyrazin-2-yl)methanone], 0.29 µM; as for `NC(=O)c1cnc2cncc(-c3ccc(CO)cc3)c2n1` [Example 29, 8-(4-(Hydroxymethyl)phenyl)pyrido[4,3-b]pyrazine-2-carboxamide], 0.05 µM. For `O=C(c1cnc2cncc(-c3ccc(Cl)cc3)c2n1)N1CCC(O)C1` (stereo not shown) [Example 30, (8-(4-Chlorophenyl)pyrido[4,3-b]pyrazin-2-yl)(3-hydroxypyrrolidin-1-yl)methanone], the EC (150% of control) was 0.69 µM. Take `O=C(NCc1ccccc1)c1cnc2cncc(-c3cccnc3)c2n1` [Example 31, N-Benzyl-8-(pyridin-3-yl)pyrido[4,3-b]pyrazine-2-carboxamide]: the EC (150% of control) came to 0.47 µM.

In the case of `O=C(c1cnc2cncc(-c3ccc(Cl)cc3)c2n1)N1CCS(=O)(=O)CC1` [Example 32, [8-(4-Chlorophenyl)pyrido[3,4-b]pyrazin-2-yl]-(1,1-dioxo-1,4-thiazinan-4-yl)methanone], the EC (150% of control) was found to be 0.84 µM. As for `O=C(c1cnc2cncc(-c3ccc(C(F)(F)F)cc3)c2n1)N1CCS(=O)(=O)CC1` [Example 33, (1,1-Dioxo-1,4-thiazinan-4-yl)-[8-[4-(trifluoromethyl)phenyl]pyrido[3,4-b]pyrazin-2-yl]methanone], the figure is 1.65 µM; as for `N#Cc1ccc(-c2cncc3ncc(C(N)=O)nc23)cc1` [Example 34, 8-(4-Cyanophenyl)pyrido[4,3-b]pyrazine-2-carboxamide], 0.15 µM.

`CC(C)(C)NC(=O)c1cnc2cncc(-c3ccc(C(F)(F)F)cc3)c2n1` [Example 35, N-tert-Butyl-8-(4-(trifluoromethyl)phenyl)pyrido[4,3-b]pyrazine-2-carboxamide] gave an EC (150% of control) of 0.32 µM. With `CC(NC(=O)c1cnc2cncc(-c3ccc(Cl)cc3Cl)c2n1)C(C)(C)O` (stereo not shown) [Example 36, 8-(2,4-Dichlorophenyl)-N-(3-hydroxy-3-methylbutan-2-yl)pyrido[4,3-b]pyrazine-2-carboxamide] the figure was 1.5 µM; with `CC(NC(=O)c1cnc2cncc(-c3ccccc3Cl)c2n1)C(C)(C)O` (stereo not shown) [Example 37, 8-(2-Chlorophenyl)-N-(3-hydroxy-3-methylbutan-2-yl)pyrido[4,3-b]pyrazine-2-carboxamide], 1.13 µM.
